Results from US20230416268A1, “PYRIMIDINONE-CONTAINING 17-BETA-HYDROXYSTEROID DEHYDROGENASE TYPE 13 INHIBITORS” (ENANTA PHARMACEUTICALS, INC., priority 2022, published 2023).

Target: Recombinant human 17β-HSD13 (Homo sapiens (Human), UniProt Q7Z5P4)
Experiment: 17β-HSD13 rapid-fire mass spectrometry assay (RF/MS assay)
Format: biochemical
Conditions: HSD17B13 80 nM, LTB4 10 μM, NAD+ 0.5 mM, RT 3 h, RF/MS readout
Description: 17β-HSD13 rapid-fire mass spectrometry assay (RF/MS assay). Recombinant human 17β-HSD13 was expressed and purified from sf9 cells at Charles River Labs (Saffron Walden, UK). […] The assays were quenched by adding 20 μL of 0.15% aqueous formic acid and the plates were frozen at −80° C. RF/MS analysis was performed at PureHoney Technologies (Billerica, MA) on a RapidFire RF300 system (Agilent Technologies, Inc.) coupled to an API 4000 triple quadrupole mass spectrometer (Sciex) equipped with Agilent RapidFire cartridge type A (C4). The mobile phase was 0.09% formic acid and 0.01% trifluoracetic acid in water (Buffer A) and 0.09% formic acid and 0.01% trifluoracetic acid in 80% aqueous acetonitrile (Buffer B). The RapidFire method conditions were the following: 250 ms aspirate, 3000 ms load/desalt, 4000 ms elute, and 500 ms re-equilibrate. RF-MS/MS was performed in negative polarity (−4500 V), the source temperature was 650° C., and gas 1 and gas 2 settings for nitrogen were set to 50. The curtain gas and collision gas were also nitrogen and were set to 20 and 12, respectively.
Data Analysis. 17β-HSD13 enzyme activity was measured as percent conversion of extracted ion counts and normalized to high and low controls to determine percent residual activity at various concentrations of test compounds. Data were fitted to normalized activity (variable slope) versus concentration fit in GraphPad Prism 7 to determine IC50. All experiments were run in duplicates.

Chain of Recombinant human 17β-HSD13 (Q7Z5P4 20-300): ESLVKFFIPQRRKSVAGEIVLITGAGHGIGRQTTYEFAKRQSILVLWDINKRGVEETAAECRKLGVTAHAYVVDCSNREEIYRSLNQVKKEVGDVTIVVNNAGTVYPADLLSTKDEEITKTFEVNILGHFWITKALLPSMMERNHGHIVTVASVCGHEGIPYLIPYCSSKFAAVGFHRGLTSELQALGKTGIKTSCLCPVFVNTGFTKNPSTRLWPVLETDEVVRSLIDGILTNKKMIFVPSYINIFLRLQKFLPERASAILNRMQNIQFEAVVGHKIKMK

| SMILES | IC50 [µM] |
| --- | --- |
| COc1ccc(-c2nc3sc4c(OP(=O)(O)O)cccc4c3c(=O)n2Cc2nnn(C)n2)c(C2CC2)c1 [Example 71] | 1 to 10 |
| COc1ccc(-c2nc3sc4c(O)cccc4c3c(=O)n2Cc2cn[nH]c2)c(C2CC2)c1 [Example 14] | < 0.1 |
| CC(C)Oc1ccc(-c2nc3sc4c(O)cccc4c3c(=O)n2Cc2ccccc2)cc1 [Example 7] | > 10 |
| COc1ccc(-c2nc3sc4c(O)cccc4c3c(=O)n2CCNCc2cn[nH]c2)c(C2CC2)c1 [Example 30] | < 0.1 |
| O=c1c2c(nc(-c3ccc4c(c3)OCO4)n1Cc1ccccc1)sc1c(O)cccc12 [Example 6] | > 10 |
| COc1ccc(-c2nc3sc4c(O)cccc4c3c(=O)n2CCNCc2cncs2)c(C2CC2)c1 [Example 32] | < 0.1 |
| O=c1c2c(nc(-c3ccc4c(c3)OCCO4)n1Cc1ccccc1)sc1c(O)cccc12 [Example 4] | 0.1 to 1 |
| COc1ccc(-c2nc3sc4c(O)cccc4c3c(=O)n2Cc2ccccc2)c(C2CC2)c1 [Example 9] | < 0.1 |
| COc1ccc(-c2nc3sc4c(O)cccc4c3c(=O)n2CCNC(=O)c2ccncc2)c(C2CC2)c1 [Example 38] | 0.1 to 1 |
| COc1ccc(-c2nc3sc4c(O)cccc4c3c(=O)n2CCNCc2nnnn2C)c(C2CC2)c1 [Example 40] | < 0.1 |
| COc1ccc(-c2nc3sc4c(O)cccc4c3c(=O)n2CCNCc2cccnc2)c(C2CC2)c1 [Example 23] | < 0.1 |
| CC(C)(C)c1ccc(-c2nc3sc4c(O)cccc4c3c(=O)n2Cc2ccccc2)cc1 [Example 5] | > 10 |
| COc1ccc(-c2nc3sc4c(O)cccc4c3c(=O)n2CCNCc2nnn[nH]2)c(C2CC2)c1 [Example 34] | < 0.1 |
| COc1ccc(-c2nc3sc4c(O)cccc4c3c(=O)n2C/C=C/COc2ccncc2)c(C2CC2)c1 [Example 37] | < 0.1 |
| COc1ccc(-c2nc3sc4c(O)cccc4c3c(=O)n2C/C=C/COC(=O)N(C)C)c(C2CC2)c1 [Example 36] | < 0.1 |
| COc1ccc(-c2nc3sc4c(O)cccc4c3c(=O)n2CCN)c(C2CC2)c1 [Example 44] | 0.1 to 1 |
| COc1ccc(-c2nc3sc4c(O)cccc4c3c(=O)n2Cc2nnn(C)n2)c(C2CC2)c1 [Example 16] | < 0.1 |
| COc1ccc(-c2nc3sc4c(OC(=O)c5ccccc5)cccc4c3c(=O)n2Cc2cnco2)c(C2CC2)c1 [Example 3, 2-(2-cyclopropyl-4-methoxyphenyl)-3-(oxazol-5-ylmethyl)-4-oxo-3,4-dihydrobenzo[4,5]thieno[2,3-d]pyrimidin-8-yl benzoate] | 0.1 to 1 |
| COc1ccc(-c2nc3sc4c(O)cccc4c3c(=O)n2CCNCc2cnccn2)c(C2CC2)c1 [Example 28] | < 0.1 |
| COc1ccc(-c2nc3sc4c(OC(C)=O)cccc4c3c(=O)n2Cc2cnco2)c(C2CC2)c1 [Example 1, 2-(2-cyclopropyl-4-methoxyphenyl)-3-(oxazol-5-ylmethyl)-4-oxo-3,4-dihydrobenzo[4,5]thieno[2,3-d]pyrimidin-8-yl acetate] | 0.1 to 1 |
| COc1ccc(-c2nc3sc4c(O)cccc4c3c(=O)n2CCN2CCCCC2)c(C2CC2)c1 [Example 20] | < 0.1 |
| COc1ccc(-c2nc3sc4c(O)cccc4c3c(=O)n2Cc2ccccc2)c(Br)c1 [Example 8] | 0.1 to 1 |
| COc1ccc(-c2nc3sc4c(O)cccc4c3c(=O)n2C/C=C/CO)c(C2CC2)c1 [Example 43] | < 0.1 |
| COc1ccc(-c2nc3sc4c(O)cccc4c3c(=O)n2Cc2ccnc(Cl)c2)c(C2CC2)c1 [Example 13] | < 0.1 |
| COc1ccc(-c2nc3sc4c(O)cccc4c3c(=O)n2Cc2ccncc2)c(C2CC2)c1 [Example 10] | < 0.1 |
| COc1ccc(-c2nc3sc4c(O)cccc4c3c(=O)n2CCN(C)C)c(C2CC2)c1 [Example 25] | < 0.1 |
| O=c1c2c(nc(-c3ccccc3C3CC3)n1Cc1cncs1)sc1c(O)cccc12 [Example 47] | < 0.1 |
| COc1ccc(-c2nc3sc4c(O)cccc4c3c(=O)n2CCNCc2cnc(OC)nc2)c(C2CC2)c1 [Example 29] | < 0.1 |
| COc1ccc(-c2nc3sc4c(O)cccc4c3c(=O)n2Cc2cncs2)c(C2CC2)c1 [Example 15] | < 0.1 |

Now from value to molecule:

| IC50 [µM] | SMILES |
| --- | --- |
| < 0.1 | COc1ccc(-c2nc3sc4c(O)cccc4c3c(=O)n2Cc2ccno2)c(C2CC2)c1 [Example 63] |
| < 0.1 | COc1ccc(-c2nc3sc4c(O)ccc(Cl)c4c3c(=O)n2Cc2cnco2)c(C2CC2)c1 [Example 91] |
| < 0.1 | COc1ccc(-c2nc3sc4c(O)cccc4c3c(=O)n2Cc2cnc(C)s2)c(C2CC2)c1 [Example 60] |
| < 0.1 | CC(C)Oc1ccccc1-c1nc2sc3c(O)cccc3c2c(=O)n1Cc1cncs1 [Example 49] |
| 1 to 10 | COc1ccc(-c2nc3sc4c(OC(=O)C(C)C)cccc4c3c(=O)n2Cc2cnco2)c(C2CC2)c1 [Example 88] |
| 0.1 to 1 | COc1ccc(-c2nc3sc4c(O)cccc4c3c(=O)n2CC(F)(F)F)c(C2CC2)c1 [Example 58] |
| < 0.1 | CC(C)Oc1ccc(-c2nc3sc4c(O)cccc4c3c(=O)n2Cc2ccno2)c(C2CC2)c1 [Example 82] |
| 0.1 to 1 | CCCn1c(-c2ccc(OC)cc2C2CC2)nc2sc3c(O)cccc3c2c1=O [Example 57] |
| < 0.1 | C=CCn1c(-c2ccc(OC)cc2C2CC2)nc2sc3c(O)cccc3c2c1=O [Example 65] |
| < 0.1 | COc1ccc(-c2nc3sc4c(O)cccc4c3c(=O)n2Cc2cnc(C)o2)c(C2CC2)c1 [Example 67] |
| < 0.1 | COc1ccc(-c2nc3sc4c(O)cccc4c3c(=O)n2Cc2csc(C)n2)c(C2CC2)c1 [Example 62] |
| < 0.1 | O=c1c2c(nc(-c3ccc(F)cc3C3CC3)n1Cc1ccno1)sc1c(O)cccc12 [Example 68] |
| 0.1 to 1 | O=c1c2c(nc(-c3ccc(F)cc3C3CC3)n1CCn1ccc(C3CC3)n1)sc1c(O)cccc12 [Example 72] |
| 0.1 to 1 | O=c1c2c(nc(-c3ccc(F)cc3C3CC3)n1CCn1cnnc1)sc1c(O)cccc12 [Example 78] |
| < 0.1 | O=c1c2c(nc(-c3ccc(F)cc3C3CC3)n1CCn1cnnn1)sc1c(O)cccc12 [Example 81] |
| 0.1 to 1 | CCc1ncc(Cn2c(-c3ccc(OC)cc3C3CC3)nc3sc4c(O)cccc4c3c2=O)s1 [Example 61] |
| 1 to 10 | Cc1cc(Cn2c(-c3ccc(F)cc3C3CC3)nc3sc4c(O)cccc4c3c2=O)on1 [Example 73] |
| > 10 | COc1ccc(-c2nc3sc4c(O)cccc4c3c(=O)n2C/C=C/CN(C)C)c(C2CC2)c1 [Example 55] |
| 0.1 to 1 | COc1ccc(-c2nc3sc4c(O)cccc4c3c(=O)n2C/C=C/CSc2ccccc2)c(C2CC2)c1 [Example 52] |
| < 0.1 | CCOC(=O)C1CC1Cn1c(-c2ccc(OC)cc2C2CC2)nc2sc3c(O)cccc3c2c1=O (centres unmarked) [Example 51] |
| < 0.1 | O=c1c2c(nc(-c3ccc(F)cc3C3CC3)n1CCCc1nccs1)sc1c(O)cccc12 [Example 84] |
| < 0.1 | O=c1c2c(nc(-c3ccc(F)cc3C3CC3)n1CCn1nccn1)sc1c(O)cccc12 [Example 79] |
| < 0.1 | Cc1ncc(Cn2c(-c3ccc(F)cc3C3CC3)nc3sc4c(O)cccc4c3c2=O)o1 [Example 75] |
| < 0.1 | O=c1c2c(nc(-c3ccc(F)cc3C3CC3)n1CCn1ccnn1)sc1c(O)cccc12 [Example 80] |
